Source: publication PMC3693772, “Protein expression, biochemical pharmacology of signal transduction, and relation to intraocular pressure modulation by bradykinin B2 receptors in ciliary muscle” (Molecular Vision, 2013)
“Also recorded” adds a separate entry of the source.

Assays:
cynomolgus monkey eyes = experiment: IOP after topical ocular dosing in cynomolgus monkeys; format: in vivo; conditions: for IOP change (% of control) / IOP: 100 µg topical
Experimental: Intraocular pressure measurements
To extend our in vitro observations of the high density of B2-receptor protein in human and cynomolgus monkey ciliary muscle and non-pigmented ciliary epithelium, we studied the effects of topically administered BK (100 µg total dose in a sterile vehicle) on IOP in normotensive and TM-ablated hypertensive eyes of these animals. […] However, since we could not subject the monkeys to additional studies involving BK delivery to the eye interior, it was decided that intravitreal (ivt) injection of BK into pigmented Dutch-Belt rabbits would be worth pursuing. Thus, after light corneal anesthesia with 0.1% proparacaine, basal IOPs were determined in up to 10 Dutch-Belt rabbits using an Alcon Pneumotonometer (Alcon Laboratories Inc., Fort Worth, TX). After this time, 50 µg of BK (B2 agonist) or Des-Arg^9-BK (B1 agonist) in 20 µl of sterile basal salt solution (BSS plus), or just BSS plus vehicle, was injected ivt into one eye of each rabbit and the IOP determined at various times thereafter. Authors confirm adherence to the ARVO Statement for Animals in Ophthalmic and Vision Research, with all animal studies conducted according the guidelines for Animal Care and Use at Alcon Research Ltd.

pro-MMP-2, h-CM cells = experiment: pro-MMP-2 release from h-CM cells; format: cell-based, human; conditions: BK 10 nM to 1 µM, 24 h at 37 °C; n=6
Experimental: Measurement of extracellular signal-regulated kinase-1/2 phosphorylation and pro-matrix metalloproteinase production
The release of pro-MMP-1/2/3 in the extracellular medium of h-CM cells exposed to kinin’s, for 24 h at 37 °C [29, 30] was studied next. Thus, h-CM cells isolated from multiple human donor eyes were cultured as described above and then serum-starved for 24 h prior to the addition of any test compound. Cells were incubated with the vehicle or test compound for 24 hours at 37 °C after which the medium was collected and concentrated ten-fold using Centricon concentrators (Millipore Corp., Bellireca, MA). Equal volumes of this concentrate were loaded on 10% SDS-polyacrylamide gels (SDS-PAGE) and the proteins separated and transferred to nitrocellulose membranes. The membranes were then blocked with 5% non-fat dry milk (Bio-Rad Laboratories, Hercules, CA) followed by incubation with antibodies to pro-MMP-1, pro-MMP-2, or pro-MMP-3 for 12 hours at 4 °C with gentle shaking. After washing, these membranes were incubated with appropriate secondary antibodies (HRP-conjugated; dilution 1:3000) for 1 hour at 20 °C. […] For chemiluminescent detection, the membranes were treated with enhanced chemiluminescent reagent (Amersham Pharmacia, Piscataway, NJ) and the signal was quantified using a Bio-Rad Versadoc imaging system (Bio-Rad Laboratories, Hercules, CA).

[1] = normal pressure eyes, 1 h, mean ± SEM, twelve monkeys
[2] = normal pressure eyes, 3 h, mean ± SEM, twelve monkeys
[3] = normal pressure eyes, 6 h, mean ± SEM, twelve monkeys
[4] = normal pressure eyes, 24 h, mean ± SEM, twelve monkeys
[5] = ocular hypertensive eyes, 1 h, mean ± SEM, twelve monkeys
[6] = ocular hypertensive eyes, 3 h, mean ± SEM, twelve monkeys
[7] = ocular hypertensive eyes, 6 h, mean ± SEM, twelve monkeys
[8] = ocular hypertensive eyes, 24 h, mean ± SEM, twelve monkeys

Q: With H-RPPGFSPFR-OH [BK] as the substance, how does the “IOP effect of topical BK” value (cynomolgus monkey eyes; 100 µg topical ocular, conscious cynomolgus monkeys, normotensive and hypertensive eyes) read?
A: failed to alter IOP; also recorded: no remarkable changes in IOP; also recorded: no alteration in IOP; also recorded: failed to modulate IOP

Q: And the “IOP change (% of control)” value (cynomolgus monkey eyes; normal pressure eyes, 0 h (baseline))?
A: 0%

Q: What about the IOP (cynomolgus monkey eyes; normal pressure eyes, 0 h (baseline), mean ± SEM, twelve monkeys) of the same substance?
A: 27.1±1.0 mmHg

Q: What about the IOP (cynomolgus monkey eyes; [1]) of the same substance?
A: 27.1±1.1 mmHg

Q: And the “IOP change (% of control)” value (cynomolgus monkey eyes; [1])?
A: 0.2±2.5%

Q: What about the IOP (cynomolgus monkey eyes; [2]) of the same substance?
A: 26.6±0.7 mmHg

Q: What about the “IOP change (% of control)” value (cynomolgus monkey eyes; [2]) of the same substance?
A: −1.0±2.9%

Q: What about the IOP (cynomolgus monkey eyes; [3]) of the same substance?
A: 27.2±1.1 mmHg

Q: What about the “IOP change (% of control)” value (cynomolgus monkey eyes; [3]) of the same substance?
A: 0.8±2.3%

Q: What about the IOP (cynomolgus monkey eyes; [4]) of the same substance?
A: 27.8±1.4 mmHg

Q: What about the “IOP change (% of control)” value (cynomolgus monkey eyes; [4]) of the same substance?
A: 2.4±3.3%

Q: And the “IOP change (% of control)” value (cynomolgus monkey eyes; ocular hypertensive eyes, 0 h (baseline))?
A: 0%

Q: And the IOP (cynomolgus monkey eyes; ocular hypertensive eyes, 0 h (baseline), mean ± SEM, twelve monkeys)?
A: 36.8±1.6 mmHg

Q: And the IOP (cynomolgus monkey eyes; [5])?
A: 35.9±1.8 mmHg

Q: What about the “IOP change (% of control)” value (cynomolgus monkey eyes; [5]) of the same substance?
A: −2.6±1.5%

Q: And the IOP (cynomolgus monkey eyes; [6])?
A: 35.7±1.6 mmHg

Q: What about the “IOP change (% of control)” value (cynomolgus monkey eyes; [6]) of the same substance?
A: −2.7±3.3%

Q: And the IOP (cynomolgus monkey eyes; [7])?
A: 36.6±1.7 mmHg

Q: And the “IOP change (% of control)” value (cynomolgus monkey eyes; [7])?
A: −0.4±3.0%

Q: And the IOP (cynomolgus monkey eyes; [8])?
A: 35.3±1.6 mmHg

Q: What about the “IOP change (% of control)” value (cynomolgus monkey eyes; [8]) of the same substance?
A: −4.1±2.3%

Q: What about the “pro-MMP-2 release vs basal level” value (pro-MMP-2, h-CM cells) of the same substance?
A: 1.67±0.25 fold
